Drawing on ChEMBL document CHEMBL5104090, “Recent advances in the medicinal chemistry of carbonic anhydrase inhibitors” (Eur J Med Chem, 2021), this text covers Ki, CC50 and IC50 for 61 compounds.

Some results are limits rather than exact numbers.

The target in experiment [1] is T1, Carbonic anhydrase 2 (Homo sapiens, UniProt P00918).
Experiment [2] deals with T2, Carbonic anhydrase 1 (Homo sapiens, UniProt P00915).
For experiment [3], the target named is T1, Carbonic anhydrase 2. This is another data set of the same source.
Experiment [4] addresses T2, Carbonic anhydrase 1. The source holds these as a separate data set.
Experiment [5] deals with T3, Carbonic anhydrase 4 (Homo sapiens, UniProt P22748).
T3 sequence (P22748 whole entry): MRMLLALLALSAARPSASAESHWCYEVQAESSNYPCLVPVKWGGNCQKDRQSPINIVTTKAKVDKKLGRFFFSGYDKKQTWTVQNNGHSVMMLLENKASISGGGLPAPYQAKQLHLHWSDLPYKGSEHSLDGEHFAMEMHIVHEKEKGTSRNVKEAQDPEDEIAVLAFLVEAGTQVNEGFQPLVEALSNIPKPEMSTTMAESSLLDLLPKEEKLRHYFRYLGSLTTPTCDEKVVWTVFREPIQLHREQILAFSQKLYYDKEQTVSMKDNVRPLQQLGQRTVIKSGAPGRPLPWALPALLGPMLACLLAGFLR
For experiment [6], the target named is T4, Carbonic anhydrase 9 (Homo sapiens, UniProt Q16790).
Experiment [7] addresses T4, Carbonic anhydrase 9. This is another data set of the same source.
Experiment [8] addresses T5, Carbonic anhydrase 12 (Homo sapiens, UniProt O43570).
Experiment [9] addresses T3, Carbonic anhydrase 4. This is another data set of the same source.
Experiment [10] has as its system Ca9-22. As to the kind of experiment: cells. Particulars: Homo sapiens, time 48 hrs. It counts as functional.
Description: Cytotoxicity against human Ca9-22 cells assessed as cell growth inhibition measured after 48 hrs by MTT assay
The target in experiment [11] is T5, Carbonic anhydrase 12. The source holds these as a separate data set.
Experiment [12] addresses T2, Carbonic anhydrase 1. The source holds these as a separate data set.
Experiment [13] has as its target T4, Carbonic anhydrase 9. The source holds these as a separate data set.
For experiment [14], the target named is T4, Carbonic anhydrase 9. The source holds these as a separate data set.

T5 sequence (O43570 whole entry): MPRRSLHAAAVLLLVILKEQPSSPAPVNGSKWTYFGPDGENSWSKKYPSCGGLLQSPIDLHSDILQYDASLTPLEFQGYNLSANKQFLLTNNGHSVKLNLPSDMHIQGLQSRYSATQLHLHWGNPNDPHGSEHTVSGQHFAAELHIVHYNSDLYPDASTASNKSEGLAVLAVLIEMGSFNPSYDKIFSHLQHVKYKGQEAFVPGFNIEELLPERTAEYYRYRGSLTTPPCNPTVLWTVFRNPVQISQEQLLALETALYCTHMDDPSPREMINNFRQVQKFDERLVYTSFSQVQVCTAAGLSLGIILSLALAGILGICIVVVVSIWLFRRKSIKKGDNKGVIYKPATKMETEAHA
T2 sequence (P00915 whole entry): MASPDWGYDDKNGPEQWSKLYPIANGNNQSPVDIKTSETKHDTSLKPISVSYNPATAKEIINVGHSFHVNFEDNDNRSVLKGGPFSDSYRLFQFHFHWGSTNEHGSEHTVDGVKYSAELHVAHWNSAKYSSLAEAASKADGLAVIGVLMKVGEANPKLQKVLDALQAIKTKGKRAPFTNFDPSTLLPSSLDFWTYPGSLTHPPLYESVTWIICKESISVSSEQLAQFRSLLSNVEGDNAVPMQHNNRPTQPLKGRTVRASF

`O=S1(=O)CC=Cc2ccc(-c3ccc(C(F)(F)F)cc3)cc2O1`: the Ki in [1] and in experiment [2] was above 100000 nM in each case.

Consider `O=C(O)c1ccc(N2C(=O)c3ccc(C(=O)O)cc3C2=O)cc1`, for which the Ki in experiment [3], in experiment [4], in [5] and in [6] was above 10000 nM throughout.

As for `O=S1(=O)CC=Cc2cccc(-c3ccccc3)c2O1`, the inhibition constant (Ki) in experiment [1] and in experiment [2] was above 100000 nM each time.

Consider `N#Cc1ccc(CSc2nc3ccccc3c(=O)n2CCc2ccc(S(N)(=O)=O)cc2)cc1`, for which the Ki (as a rule, the equilibrium dissociation constant of an inhibitor or competing ligand from its target) in experiment [7] was determined as 19.3 nM; in experiment [8], 17.2 nM.

As for `O=S1(=O)CC=Cc2cc(-c3ccc(C(F)(F)F)cc3)ccc2O1`, the Ki in experiment [1] and in experiment [2] was above 100000 nM throughout.

For `CCOC(=O)c1ccc(-c2cccc3c2OS(=O)(=O)CC=C3)cc1`, the Ki in experiment [1] and in experiment [2] was above 100000 nM each time.

With `N#CCSc1nc2ccccc2c(=O)n1CCc1ccc(S(N)(=O)=O)cc1`, the inhibition constant Ki in experiment [7] and in [8] was 57.8 nM in each case.

Turning to `COC(=O)c1ccc2c(c1)C(=O)N(Cc1ccc(S(N)(=O)=O)cc1)C2=O`, the Ki came out at 25.9 nM in experiment [3], 54.1 nM in experiment [4], 317 nM in [5] and 54.1 nM in experiment [6].

On to `COc1ccc(-c2cccc3c2OS(=O)(=O)CC=C3)cc1`, for which the Ki in experiment [1] and in experiment [2] was above 100000 nM in each case.

Turning to `O=S1(=O)CC=Cc2cc(I)ccc2O1`, the Ki in experiment [1] and in [2] was above 100000 nM in each case.

As to `COc1ccc(C(=O)/C=C/Nc2ccc(S(N)(=O)=O)cc2)cc1`, the Ki in experiment [7] stood at 0.21 nM; in experiment [9], 6.5 nM.

As for `NS(=O)(=O)c1cccc(N/C=C/C(=O)c2ccccc2)c1`, the Ki in experiment [9] was found to be 6.5 nM.

Turning to `O=S1(=O)CC=Cc2ccc(-c3ccc(F)cc3)cc2O1`, the inhibitory constant (Ki) in [1] and in experiment [2] was above 100000 nM throughout.

For the compound `NS(=O)(=O)c1ccc(C(=O)N/N=C/c2ccc(O)cc2)cc1`, the inhibition constant Ki is 8.5 nM in [7] and 8.6 nM in experiment [8].

`CCSc1nc2ccccc2c(=O)n1CCc1ccc(S(N)(=O)=O)cc1`: the Ki in experiment [7] and in experiment [8] was 57.8 nM each time.

Take `COc1cc(/C=N/NC(=O)c2ccc(S(N)(=O)=O)cc2)ccc1O`: the Ki in [7] amounted to 8.5 nM; in experiment [8], 9.7 nM.

Regarding `NS(=O)(=O)c1ccc(C(=O)N/N=C/c2cccc(O)c2)cc1`, the Ki in [7] stood at 8.5 nM; in [8], 8.6 nM.

As to `CCOC(=O)c1ccc(-c2ccc3c(c2)OS(=O)(=O)CC=C3)cc1`, the Ki in experiment [1] and in experiment [2] was above 100000 nM each time.

`NS(=O)(=O)c1ccc(N/C=C/C(=O)c2ccco2)cc1`: the values for the Ki in [7] and in [9] were 0.21 nM and 6.5 nM, respectively.

In turn, `NS(=O)(=O)c1cccc(N/C=C/C(=O)c2ccc3ccccc3c2)c1` gave a Ki in [9] of 6.5 nM. In other words, the single-digit nanomolar range.

Turning to `O=S1(=O)CC=Cc2cccc(-c3ccc(F)cc3)c2O1`, the Ki in [1] and in [2] was above 100000 nM throughout.

With `CCOC(=O)c1ccc(N2C(=O)c3ccc(C(=O)OC)cc3C2=O)cc1`, the Ki in experiment [3], in [4], in [5] and in experiment [6] was above 10000 nM in each case.

With `NS(=O)(=O)c1ccc(N/C=C/C(=O)c2ccc(Cl)cc2)cc1`, the Ki turned out to be 0.21 nM in experiment [7] and 6.5 nM in [9].

Regarding `O=S1(=O)CC=Cc2cccc(Br)c2O1`, the Ki in experiment [1] and in [2] was above 100000 nM in each case.

For `Cc1ccc(CSc2nc3ccccc3c(=O)n2CCc2ccc(S(N)(=O)=O)cc2)cc1`, the inhibition constant (Ki) was 19.3 nM in experiment [7] and 17.2 nM in [8].

For the compound `NS(=O)(=O)c1ccc(N/C=C/C(=O)c2cccs2)cc1`, the Ki was determined as 0.21 nM in experiment [7] and 6.5 nM in experiment [9].

For `O=S1(=O)CC=Cc2cc(-c3ccccc3)ccc2O1`, the Ki in experiment [1] and in [2] was above 100000 nM throughout.

As to `NS(=O)(=O)c1ccc(CCn2c(SCc3ccc(Cl)cc3)nc3ccccc3c2=O)cc1`, the values for the Ki in [7] and in experiment [8] were 19.3 nM and 17.2 nM, respectively.

As to `CSc1nc2ccccc2c(=O)n1CCc1ccc(S(N)(=O)=O)cc1`, the Ki in [7] and in experiment [8] was 57.8 nM throughout.

`NS(=O)(=O)c1cccc(N/C=C/C(=O)c2ccc(Cl)cc2)c1` yielded a Ki in experiment [9] of 6.5 nM.

Consider `COc1ccc(-c2ccc3c(c2)OS(=O)(=O)CC=C3)cc1`, for which the Ki in [1] and in [2] was above 100000 nM in each case.

Turning to `NS(=O)(=O)c1ccc(N2C(=O)c3ccc(C(=O)O)cc3C2=O)cc1`, the Ki in experiment [3] was 25.9 nM; in experiment [4], 54.1 nM; in experiment [5] it was 317 nM; in experiment [6] it was 54.1 nM.

Regarding `NS(=O)(=O)c1ccc(CN2C(=O)c3ccc(C(=O)O)cc3C2=O)cc1`, the Ki in experiment [3] was found to be 25.9 nM; in experiment [4] it was 54.1 nM; in experiment [5], 317 nM; in experiment [6], 54.1 nM.

`CCOC(=O)c1ccc(-c2ccc3c(c2)C=CCS(=O)(=O)O3)cc1`: the Ki in experiment [1] and in experiment [2] was above 100000 nM in each case.

With `NS(=O)(=O)c1ccc(CCn2c(SCc3ccccc3)nc3ccccc3c2=O)cc1`, the inhibition constant (Ki) in [7] came to 19.3 nM; in [8], 17.2 nM.

For the compound `COc1ccc(C2CC(c3ccc(Br)cc3)=NN2c2ccc(S(N)(=O)=O)cc2)c(OC)c1OC` (centres undefined), half-maximal cytotoxicity in experiment [10] (CC50) was put at 6300 nM. Also, the inhibition constant Ki was above 9 nM in experiment [11], above 230 nM in experiment [12] and above 44 nM in experiment [13].

`Cc1ncc([N+](=O)[O-])n1CCS(N)(=O)=O`: in experiment [14], the IC50 – broadly, the concentration needed to halve the response being measured – worked out at 643 nM. That is a sub-micromolar value.

`NS(=O)(=O)c1ccc(C(=O)N/N=C/c2ccccc2O)cc1`: the Ki in experiment [7] amounted to 8.5 nM; in experiment [8] it was 8.6 nM.

As for `COc1ccc(C2CC(c3ccc(Cl)cc3)=NN2c2ccc(S(N)(=O)=O)cc2)c(OC)c1OC` (centres undefined), the midpoint of cytotoxicity in experiment [10], the CC50, lay at 6300 nM. Besides, the inhibitory constant (Ki) was above 9 nM in [11], above 230 nM in experiment [12] and above 44 nM in [13].

For the compound `COc1cc(OC)c(C2CC(c3ccccc3)=NN2c2ccc(S(N)(=O)=O)cc2)cc1OC` (centres undefined), the midpoint of cytotoxicity in [10], the CC50, lay at 6300 nM. Besides, the Ki was above 9 nM in [11], above 230 nM in experiment [12] and above 44 nM in experiment [13].

As to `O=C(O)c1ccc2c(c1)C(=O)N(CCc1ccccc1)C2=O`, the inhibitory constant (Ki) in experiment [3], in experiment [4], in [5] and in experiment [6] was above 10000 nM in each case.

Turning to `COc1cc(C2CC(c3ccc(C(F)(F)F)cc3)=NN2c2ccc(S(N)(=O)=O)cc2)cc(OC)c1OC` (centres undefined), in experiment [10], the CC50 (usually the concentration that lowers cell viability or growth by half) is 6300 nM. Moreover, the Ki in experiment [11] was above 9 nM; in [12], above 230 nM; in experiment [13] it was above 44 nM.

`NS(=O)(=O)c1cccc(N/C=C/C(=O)c2ccc(Br)cc2)c1`: affinity in experiment [9] was put at a Ki of 6.5 nM.

Take `COc1ccc(C(=O)/C=C/Nc2cccc(S(N)(=O)=O)c2)cc1`: in [9], the Ki is 6.5 nM.

On to `COc1cc(C2CC(c3ccc(Cl)cc3)=NN2c2ccc(S(N)(=O)=O)cc2)cc(OC)c1OC` (centres undefined), for which the CC50 in experiment [10] is 6300 nM. The results for the Ki in [11], in [12] and in experiment [13] were above 9 nM, above 230 nM and above 44 nM, respectively.

The compound `NS(=O)(=O)c1ccc(CCn2c(SCc3ccc([N+](=O)[O-])cc3)nc3ccccc3c2=O)cc1` yielded a Ki in experiment [8] of 17.2 nM.

As to `O=S1(=O)CC=Cc2ccc(-c3ccccc3)cc2O1`, the Ki in experiment [1] and in experiment [2] was above 100000 nM throughout.

As for `COC(=O)c1ccc2c(c1)C(=O)N(CCc1ccc(S(N)(=O)=O)cc1)C2=O`, the Ki stood at 25.9 nM in experiment [3], 54.1 nM in [4], 317 nM in experiment [5] and 54.1 nM in experiment [6].

For the compound `O=S1(=O)CC=Cc2cccc(-c3ccc(C(F)(F)F)cc3)c2O1`, the Ki in [1] and in [2] was above 100000 nM in each case.

For the compound `O=C1c2ccccc2C(=O)N1CCCSc1nc2ccccc2c(=O)n1CCc1ccccc1`, the Ki in experiment [7] worked out at 19.3 nM; in experiment [8] it was 17.2 nM.

In experiment [9], `Cc1ccc(C(=O)/C=C/Nc2cccc(S(N)(=O)=O)c2)cc1` yielded a Ki of 6.5 nM. That is a single-digit nanomolar value.

Take `O=S1(=O)CC=Cc2cc(-c3ccc(F)cc3)ccc2O1`: the Ki in experiment [1] and in [2] was above 100000 nM in each case.

Consider `CCN(CC)c1ccc(/C=N/NC(=O)c2ccc(S(N)(=O)=O)cc2)c(O)c1`, for which the Ki in experiment [7] is 15.8 nM; in experiment [8], 8.6 nM.

`NS(=O)(=O)c1cccc(N/C=C/C(=O)c2cccs2)c1` gave a Ki in [9] of 8.7 nM.

The compound `COc1cc(OC)c(C2CC(c3ccc(F)cc3)=NN2c2ccc(S(N)(=O)=O)cc2)cc1OC` (centres undefined) showed a CC50 in experiment [10] of 6300 nM. In addition, the Ki in [11] is above 9 nM; in [12] it was above 230 nM; in experiment [13], above 44 nM.

Consider `NS(=O)(=O)c1cccc(N/C=C/C(=O)c2ccco2)c1`, for which, in [9], the inhibitory constant (Ki) worked out at 64.5 nM.

As to `NS(=O)(=O)c1ccc(CCn2c(SCc3ccc(Br)cc3)nc3ccccc3c2=O)cc1`, the Ki in experiment [7] amounted to 19.3 nM; in experiment [8] it was 17.2 nM.

`COc1ccc(-c2ccc3c(c2)C=CCS(=O)(=O)O3)cc1`: the Ki in experiment [1] and in experiment [2] was above 100000 nM in each case.

In experiment [10], `COc1cc(OC)c(C2CC(c3ccc(Cl)cc3)=NN2c2ccc(S(N)(=O)=O)cc2)cc1OC` (centres undefined) returned a CC50 of 6300 nM. Further, the Ki in [11] is above 9 nM; in experiment [12], above 230 nM; in experiment [13], above 44 nM.

On to `NS(=O)(=O)c1cccc(N/C=C/C(=O)c2ccc([N+](=O)[O-])cc2)c1`, for which the affinity in [9], expressed as Ki, was 6.5 nM.

For `O=S1(=O)CC=Cc2ccc(Br)cc2O1`, the Ki in [1] and in [2] was above 100000 nM throughout.
